Here are results for 18 compounds from US12419307B2, “Mixtures comprising indazole pesticides” (FMC Corporation, priority 2019, dated 2025).

Assay type in all cases: in vivo
Data set [1] concerns cotton melon aphid (Aphis gossypii Glover). The experiment in a line: Test D: cotton melon aphid control on okra plants, insect mortality after 6 days. As to the method:
The analysis of enhanced activity between the mixtures or compositions was determined using Colby's equation. The average % mortality data for the test compounds alone were inserted into the Colby's equation. If the observed (obs) average % mortality was higher than “p”, the expected (exp) % mortality, the mixture or composition had enhanced effects. If the observed average % mortality was equal to or lower than the expected mortality, the mixture or composition either had no enhanced effect. For bioassays where insect feeding damage was evaluated, enhanced activity is identified when the observed plant damage is less than the expected plant damage rating; ratings ranged between 0 (no damage) and 10 (dead plant) and each value was converted to a % plant protection. 100−(Obs Plant Damage*10)
For evaluating control of cotton melon aphid (Aphis gossypii Glover) through contact and/or systemic means, each test unit consisted of a small open container with a 6- to 7-day-old okra plant inside. This was pre-infested by placing on a leaf of the test plant 30 to 40 aphids on a piece of leaf excised from a culture plant (cut-leaf method). The […] moved onto the test plant as the leaf piece desiccated. After pre-infestation, the soil of the test unit was covered with a layer of sand.
Test compounds were formulated and sprayed as described for Test A. The applications were replicated three times. After spraying of the formulated test compounds, each test unit was allowed to dry for 1 hour and then a black, screened cap was placed on top. […]

Data set [2] deals with Western Flower Thrips (Frankliniella occidentalis Pergande). As to the kind of experiment: Test B: Western Flower Thrips control on bean plants, plant damage rating converted to % plant protection after 7 days. The procedure: (§1) The pest control protection afforded by the mixtures or compositions is not limited, however, to these species. The analysis of enhanced activity between the mixtures or compositions was determined using Colby's equation. The average % mortality data for the test compounds alone were inserted into the Colby's equation. If the observed (obs) average % mortality was higher than “p”, the expected (exp) % mortality, the mixture or composition had enhanced effects. If the observed average % mortality was equal to or lower than the expected mortality, the mixture or composition either had no enhanced effect. For bioassays where insect feeding damage was evaluated, enhanced activity is identified when the observed plant damage is less than the expected plant damage rating; ratings ranged between 0 (no damage) and 10 (dead plant) and each value was converted to a % plant protection. 100−(Obs Plant Damage*10)
Thus, a plant given a plant damage rating of 3 out of 10 is equivalent to 70% plant protection In all of these tests, compounds of Formula I are Compounds 1 (Cpd 1), 2 (Cpd2), and 3 (Cpd3) and compounds of Formula II are compounds 4 (Cpd4) and 5 (Cpd 5).
For evaluating control of the Western Flower Thrips (Frankliniella occidentalis Pergande) through contact and/or systemic means, each test unit consisted of a small open container with a 5- to 7-day-old bean (var. Soleil) plant inside.
Test solutions were formulated and sprayed with 3 replications as described for Test A. After spraying, the test units were allowed to dry for 1 hour, 22 to 27 adult thrips were added to each unit and then a black, screened cap was placed on top. The test units were held for 7 days at 25° C. and 45-55% relative humidity. To evaluate the level of plant protection provided by each treatment, each test unit was then visually assessed for plant damage inflicted by insect feeding and rated 0-10, where 0=undamaged and 10=plant is dead; the results are listed in Tables 3a-g.

Data set [3] concerns silverleaf whitefly (Bemisia argentifolii Bellows and Perring). As to the kind of experiment: Test A: silverleaf whitefly control on cotton or soybean plants, spray, insect mortality after 13 days. The following applies: for % Mortality (obs): applied alone. As to the method: as §1
For evaluating control of silverleaf whitefly (Bemisia argentifolii Bellows and Perring) through contact and/or systemic means, each test unit consisted of a small open container with a 12- to 14-day-old cotton plant or 5-7 day old soybean plant inside. This was pre-infested by placing test units into cages containing adult whiteflies so that oviposition on the cotton leaves could occur. The adults were removed from the plants with an air-blast nozzle, and the test units were capped. The test units were then stored 2 to 3 days before spraying.
Test compounds were formulated using a solution containing 10% acetone, 90% water and 300 ppm Activator 90@ Spreader Lo-Foam Formula non-ionic surfactant containing alkylarylpolyoxyethylene, free fatty acids, glycols and 2-propanol (Loveland Industries, Inc.) to provide the desired concentration in ppm. Formulated test solutions were then applied in 1 mL volumes through a SUJ2 atomizer nozzle with ⅛ JJ custom body (Spraying Systems Co.) positioned 1.27 cm (0.5 inches) above the top of each test unit.
The results for all experimental compositions in this test were replicated three times. After spraying of the formulated test composition, each test unit was allowed to dry for 1 hour and the cap removed. The test units were held for 13 days in a growth chamber at 28° C. and 50-70% relative humidity.

For data set [4], the system named is fall armyworm (Spodoptera frugiperda (J. E. Smith)). The experiment in a line: Test E: fall armyworm control on corn plants, plant damage rating and mortality after 6 days. As to the method: as §1
For evaluating control of fall armyworm (Spodoptera frugiperda (J. E. Smith)) the test unit consisted of a small open container with a 4-5-day-old corn (maize) plant inside. This was pre-infested with 10-15 1-day-old larvae on a piece of insect diet. Test compounds were formulated and sprayed with 3 replications as described for Test A. After spraying of the formulated test compound, the test units were maintained in a growth chamber for 6 days at 25° C. and 70% relative humidity. Plant feeding damage was then visually assessed based on foliage consumed, and larvae were assessed for mortality. Each test unit was then visually assessed for plant damage and rated 0-10, where 0=undamaged and 10=plant is dead; the results are listed in Tables 6d-i.

For data set [5], the system named is corn planthopper (Peregrinus maidis (Ashmead)). As to the kind of experiment: Test C: corn planthopper control on corn plants, insect mortality after 6 days. As to conditions: for % Mortality (obs): Table 4e. As to the method: as §1
For evaluating control of corn planthopper (Peregrinus maidis (Ashmead)) through contact and/or systemic means, the test unit consisted of a small open container with a 3-4-day-old corn (maize) plant inside. White sand was added to the top of the soil prior to application of the test compound.
Test compounds were formulated and sprayed at 250 and/or 50 ppm and/or 10 ppm. After spraying of the formulated test compound, the test units were allowed to dry for 1 h before they were post-infested with ˜15-20 nymphs (18-to-21-day-old). […]

The mark [6] stands for this setting: Aphis gossypii, read-out: % Mortality (obs).
Setting [7] is: Bemisia argentifolii, read-out: % Mortality (obs).
The mark [8] stands for this setting: Spodoptera frugiperda, 144 h, read-out: Plant Protection (obs).
[9] abbreviates: Peregrinus maidis, read-out: % Mortality (obs).

In general, mortality refers to the share of the test organisms that died. Take `CCc1nn(C)c(C(=O)NCc2ccc(Oc3ccc(C)cc3)cc2)c1Cl` [Tolfenpyrad, tolfenpyrad, reference compound]: in data set [1] (setting [6]), the mortality at 0.192 ppm worked out at 29% and the mortality at 0.753 ppm stood at 61.9%.

For the compound `Cc1c(COC(=O)[C@@H]2[C@H](/C=C(\Cl)C(F)(F)F)C2(C)C)cccc1-c1ccccc1` (racemic) [Bifenthrin, bifenthrin, reference compound], in data set [2] (Frankliniella occidentalis, 168 h, Table 3f, 50 ppm, read-out: Plant Protection (obs)), the pest or weed control at 50 ppm amounted to 36.7%. In addition, the pest or weed control at 250 ppm in data set [2] (Frankliniella occidentalis, 168 h, Table 3f, 250 ppm, read-out: Plant Protection (obs)) was determined as 70%. Further, in data set [1] (setting [6]), the mortality at 50 ppm amounted to 28.7% and the mortality at 250 ppm was 58.2%. In addition, in data set [3] (setting [7]), the mortality at 50 ppm turned out to be 0% and the mortality at 250 ppm was 0%.

Regarding `N#CCNC(=O)c1cnccc1C(F)(F)F` [Flonicamid, flonicamid, reference compound], the “% Mortality (obs)” value in data set [1] (Table 5k, 0.027 ppm) is reported as 24.2%; in data set [1] (Table 5k, 0.267 ppm) it was 49.3%.

With `CNC(=O)ON=C(C)SC` [Methomyl, methomyl, reference compound], the pest or weed control at 8.5 ppm in data set [4] (setting [8]) worked out at 43.3%.

Take emamectin benzoate [reference compound]: the “Plant Protection (obs)” value in data set [4] (Table 6f, 0.03 ppm) is reported as 43.3; in data set [4] (Table 6f, 0.06 ppm) it was 23.3.

As to `O=C1C=C(N(Cc2ccc(Cl)nc2)CC(F)F)CO1` [Flupyradifurone, 4-[[(6-chloro-3-pyridinyl)methyl](2,2-difluoroethyl)amino]-2(5H)-furanone, reference compound], in data set [1] (setting [6]), the mortality at 0.02 ppm was determined as 23.4% and the mortality at 0.075 ppm turned out to be 48%.

Turning to `COc1cccc(C(=O)NN(C(=O)c2cc(C)cc(C)c2)C(C)(C)C)c1C` [Methoxyfenozide, methoxyfenozide, reference compound], the pest or weed control at 2.8 ppm in data set [4] (setting [8]) is 36.7%.

For `CCOP(=S)(OCC)Oc1nc(Cl)c(Cl)cc1Cl` [Chlorpyrifos, chlorpyrifos, reference compound], in data set [1] (setting [6]), the mortality at 0.173 ppm stood at 17.7% and the mortality at 0.624 ppm was found to be 37.9%.

With `CCOCn1c(-c2ccc(Cl)cc2)c(C#N)c(Br)c1C(F)(F)F` [Chlorfenapyr, chlorfenapyr, reference compound], in data set [4] (setting [8]), the pest or weed control at 3.7 ppm is 66.7% and the pest or weed control at 5 ppm amounted to 53.3%.

Consider `C/C(=N\C#N)N(C)Cc1ccc(Cl)nc1` [Acetamiprid, acetamiprid, reference compound], for which, in data set [2] (Table 3b, applied alone, 5.49 ppm), the “Plant Protection (obs)” value is recorded as 30.0%. Moreover, the “Plant Protection (obs)” value in data set [2] (Table 3b, applied alone, 7.04 ppm) was 70.0%. Besides, in data set [1] (setting [6]), the mortality at 0.03 ppm came to 21.1% and the mortality at 0.06 ppm came to 45.1%. In addition, in data set [3] (setting [7]), the mortality at 2.52 ppm came out at 6.5% and the mortality at 6.88 ppm was 25.4%.

Take `O=C(NC(=O)c1c(F)cccc1F)Nc1ccc(OC(F)(F)C(F)OC(F)(F)F)c(Cl)c1` (stereo not shown) [Novaluron, novaluron, reference compound]: in data set [4] (setting [8]), the pest or weed control at 0.21 ppm came out at 33.3% and the pest or weed control at 0.36 ppm worked out at 80%.

As to spinetoram [reference compound], the “% Mortality (obs)” value was determined as 7.5% in data set [5] (8.46 ppm); 14.1% in data set [5] (20.79 ppm); 51.2% in data set [1] (Table 5f, 50 ppm); 73.9% in data set [1] (Table 5f, 250 ppm); 0% in data set [3] (Table 2h, 5 ppm); 64.4% in data set [3] (Table 2h, 29.5 ppm).

Regarding `CC(C)N1C(=O)N(c2ccccc2)CS/C1=N\C(C)(C)C` [Buprofezin, buprofezin, reference compound], in data set [5] (setting [9]), the mortality at 0.524 ppm turned out to be 83.7% and the mortality at 0.984 ppm was 94.6%.

Take `N#Cc1nn(-c2c(Cl)cc(C(F)(F)F)cc2Cl)c(N)c1[S+]([O-])C(F)(F)F` (stereo not shown) [Fipronil, fipronil, reference compound]: in data set [5] (setting [9]), the mortality at 0.78 ppm was determined as 65.2% and the mortality at 1.197 ppm came to 85.5%.

Turning to `CNC(=O)c1cc(Cl)cc(C)c1NC(=O)c1cc(Br)nn1-c1ncccc1Cl` [Chlorantraniliprole, chlorantraniliprole, reference compound], in data set [2] (Frankliniella occidentalis, 168 h, Table 3e, 2.08 ppm, read-out: Plant Protection (obs)), the pest or weed control at 2.08 ppm is 63.3%. Also, in data set [2] (Frankliniella occidentalis, 168 h, Table 3e, 28.7 ppm, read-out: Plant Protection (obs)), the pest or weed control at 28.7 ppm was 60%. In data set [1] (setting [6]), the mortality at 0.23 ppm came out at 21% and the mortality at 0.63 ppm is 42.3%. In addition, in data set [3] (setting [7]), the mortality at 0.54 ppm was 0% and the mortality at 189.1 ppm came to 59.2%.

For `COC(=O)N(C(=O)N1CO[C@@]2(C(=O)OC)Cc3cc(Cl)ccc3C2=N1)c1ccc(OC(F)(F)F)cc1` [Indoxacarb, indoxacarb, reference compound], the “Plant Protection (obs)” value in data set [2] (Table 3g, 50 ppm) worked out at 10.0; in data set [2] (Table 3g, 250 ppm), 36.7; in data set [4] (Table 6e, 0.2 ppm), 70; in data set [4] (Table 6e, 0.5 ppm), 70. Besides, the “% Mortality (obs)” value in data set [1] (Table 5h, 50 ppm) is 23.4%; in data set [1] (Table 5h, 250 ppm) it was 37.5%; in data set [3] (Table 2g, 50 ppm), 1.2%; in data set [3] (Table 2g, 250 ppm), 0%.

As to `CC(COc1ccc(Oc2ccccc2)cc1)Oc1ccccn1` (stereo not shown) [Pyriproxyfen, pyriproxyfen, reference compound], the mortality at 0.053 ppm in data set [3] (setting [7]) stood at 68%.

For the compound `CC1(C)C(C=C(Cl)Cl)C1C(=O)OCc1cccc(Oc2ccccc2)c1` (stereo not shown) [Permethrin, permethrin, reference compound], in data set [1] (setting [6]), the mortality at 0.0004 ppm came to 15.6% and the mortality at 0.04 ppm was determined as 32.1%.
